Patent US10005792B2, “Aminoindane-, aminotetrahydronaphthalene- and aminobenzocyclobutane-derived PRMT5-inhibitors” (CTXT PTY LTD, priority 2014, dated 2018)

Key:
[1] = target: T1, Full-length PRMT5 enzyme co-expressed with MEP50 (Homo sapiens (Human), UniProt O14744); experiment: PRMT5 Biochemical Assay; settings: 200 nM histone H4 derived peptide substrate, 1 μM S-Adenosyl methionine, 4 hours at 37° C, Transcreener EPIGEN fluorescence polarisation
Description: Compounds of the invention may be tested for in vitro activity in the following assay: A histone H4 derived peptide is used as substrate (amino acid sequence: […]NH2). Full-length PRMT5 enzyme (NCBI Reference sequence NP-006100.2) was co-expressed with Hiss-MEP50 in insect cells and purified via Nickel immobilized metal affinity and gel filtration chromatography (“the enzyme”).
The 6 μL assay reactions are run in Greiner brand black 384-well low volume plates. All reactions contained assay buffer (phosphate buffered saline, 0.01% (v/v) Tween-20, 0.01% (w/v) albumin from chicken egg white, 1 mM dithiothreitol, 200 nM peptide substrate, 1 μM S-Adenosyl methionine, and 15 ng/reaction enzyme, with the enzyme being omitted from negative control reactions. Compounds were added in a volume of 100 nL from dilution series prepared in DMSO, positive and negative control reactions receiving the same volume DMSO without compound. The plates were sealed with adhesive seals and incubated for 4 hours at 37° C. Reaction progress was measured using the Transcreener™ EPIGEN methyltransferase assay (BellBrook Labs, Madison, Wis.) as recommended by the manufacturer. To each reaction 2 μL detection mix were added, containing coupling enzymes, fluorescence polarisation tracer, and AMP antibody. Plates were incubated for 90 min before being read on a PerkinElmer EnVision™ plate reader in fluorescence polarisation mode.

[2] = target: T1, Full-length PRMT5 enzyme co-expressed with MEP50; experiment: Revised PRMT5 Biochemical Assay; settings: 1 μM histone H4 derived peptide substrate, 1 μM S-Adenosyl methionine, 4 hours at 37 degree Celsius, Transcreener EPIGEN fluorescence polarisation
Summary of the method: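 Full-length human PRMT5 co-expressed with His-MEP50 in insect cells (15 ng/reaction), 1 μM H4-derived peptide and 1 μM SAM in PBS/0.01% Tween-20/egg albumin/1 mM DTT, 4 h at 37 °C. SAH formation read by Transcreener EPIGEN fluorescence polarisation after 90 min detection. IC50 from four-parameter fit of plate-normalised % inhibition.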

[3] = tested on: symmetrical dimethylation of arginine (Di-Methyl Histone H4 Arginine 3) in cell line TE11; experiment: Revised PRMT5 Biomarker Assay; settings: Homo sapiens, TE-11; TE11 cells, 72 hours incubation, immunofluorescence, corrected for cell number (Hoechst 33342), plate reader based
Description: Compounds of the invention may be tested for potency to inhibit symmetrical dimethylation of arginine in the following assay:
The cell line TE11 was seeded at a density of 6,000 cells per well in 96 well optical quality tissue culture plates in DME medium and 10% foetal bovine serum, and allowed to adhere for 5 hours under standard culture conditions (37 degree Celsius, 5% CO2). Compound dilutions prepared in DMSO were added to the medium, with negative control wells reserved for treatment with DMSO only and positive controls receiving a potent PRMT5 inhibitor compound at 1 μM concentration. After incubation for 72 hours, the cells were fixed with 3.7% formaldehyde in PBS for 30 minutes at room temperature, washed with phosphate buffer saline and blocked with Odyssey blocking buffer (LI-COR, Lincoln, Nebr.). Rabbit anti-Di-Methyl Histone H4 Arginine 3 specific antibody (Epigentek) in Odyssey blocking buffer was added and incubated for 14 hours at 4 degree Celsius. After washing, anti-rabbit secondary antibody labelled with Alexa647 dye (LifeTechnologies) and Hoechst 33342 (1 μg/mL, SigmaAldrich) were added for 1 hour incubation. Plates were washed and read on a PerkinElmer Envision 2103 in fluorescence intensity scanning mode (24 scans across the well area). The methylation level information was corrected for the number of cells as expressed by the Hoechst 33342 stain, converted to percent inhibition relative to controls on the same plate and the data fitted against a four-parameter logistic model to determine the 50% inhibitory concentration (IC50 plate-reader based). Alternatively, the plates were imaged on a PerkinElmer Phenix high content imaging platform. Using a Columbus image analysis pipeline, individual nuclei were located by Hoechst 33342 stain and the methylation level was calculated from the Alexa647-related intensity in the same area. The resulting mean intensity per cell was directly converted to percent inhibition as outlined above (IC50, imager based)).

T1 sequence (O14744 whole entry): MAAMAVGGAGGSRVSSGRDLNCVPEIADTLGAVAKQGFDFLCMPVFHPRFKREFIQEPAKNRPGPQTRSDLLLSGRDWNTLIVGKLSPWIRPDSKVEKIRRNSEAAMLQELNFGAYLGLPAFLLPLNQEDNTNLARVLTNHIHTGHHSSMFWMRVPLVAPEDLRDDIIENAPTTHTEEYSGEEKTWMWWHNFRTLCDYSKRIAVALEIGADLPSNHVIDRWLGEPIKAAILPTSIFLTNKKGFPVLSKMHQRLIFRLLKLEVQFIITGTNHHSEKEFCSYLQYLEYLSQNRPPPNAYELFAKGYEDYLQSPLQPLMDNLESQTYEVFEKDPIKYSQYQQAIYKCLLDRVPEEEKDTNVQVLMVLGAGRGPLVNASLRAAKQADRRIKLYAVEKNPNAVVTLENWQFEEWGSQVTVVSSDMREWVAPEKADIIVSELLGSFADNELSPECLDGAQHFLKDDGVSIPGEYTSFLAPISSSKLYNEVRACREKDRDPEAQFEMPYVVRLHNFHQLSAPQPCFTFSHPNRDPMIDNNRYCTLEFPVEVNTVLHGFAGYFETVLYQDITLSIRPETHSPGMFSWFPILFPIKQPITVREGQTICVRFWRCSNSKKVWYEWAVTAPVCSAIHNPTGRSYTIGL
T1 sequence (Q9BQA1 whole entry partner): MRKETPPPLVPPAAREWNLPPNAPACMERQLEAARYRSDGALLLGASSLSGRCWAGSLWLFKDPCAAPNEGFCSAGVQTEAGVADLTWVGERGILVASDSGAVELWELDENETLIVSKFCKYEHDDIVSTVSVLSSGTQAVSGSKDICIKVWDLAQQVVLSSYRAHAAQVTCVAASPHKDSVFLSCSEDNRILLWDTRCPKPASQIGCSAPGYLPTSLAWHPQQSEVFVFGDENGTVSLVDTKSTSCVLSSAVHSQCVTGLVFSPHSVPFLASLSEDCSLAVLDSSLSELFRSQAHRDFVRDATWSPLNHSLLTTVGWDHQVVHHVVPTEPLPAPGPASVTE

Row | IC50 [1] | IC50 [2] | IC50 [3] | Structure (SMILES)
1 | 0.629 µM |  |  | Cc1nnc(-c2ccc(C(=O)NC[C@@H](O)CNC3Cc4ccccc4C3)cc2)o1 [Compound 17, (S)-N-(3-((2,3-Dihydro-1H-inden-2-yl)amino)-2-hydroxypropyl)-4-(5-methyl-1,3,4-oxadiazol-2-yl)benzamide]
2 | 0.977 µM |  |  | O=C(NCC(O)CNC1Cc2ccccc2C1)c1ccc(C(=O)N2CCC2)cc1 (centres unmarked) [Compound 20, 4-(Azetidine-1-carbonyl)-N-(3-((2,3-dihydro-1H-inden-2-yl)amino)-2-hydroxypropyl)benzamide]
3 | 1.11 µM |  |  | O=C(NCC(O)CNC1Cc2ccccc2C1)c1ccc(C(=O)N2CCCC2)cc1 (centres unmarked) [Compound 21, N-(3-((2,3-Dihydro-1H-inden-2-yl)amino)-2-hydroxypropyl)-4-(pyrrolidine-1-carbonyl)benzamide]
4 | 2.22 µM |  |  | O=C(NCC(O)CNC1Cc2ccccc2C1)c1cccc(-c2ccccc2)c1 (centres unmarked) [Compound 25, N-(3-((2,3-Dihydro-1H-inden-2-yl)amino)-2-hydroxypropyl)[1,1′-biphenyl]-3-carboxamide]
5 | 3.87 µM |  |  | O=C(NCC(O)CNC1Cc2ccccc2C1)c1ccccc1-c1ccccc1 (centres unmarked) [Compound 26, N-(3-((2,3-Dihydro-1H-inden-2-yl)amino)-2-hydroxypropyl)-[1,1′-biphenyl]-2-carboxamide]
6 | 0.434 µM |  |  | O=C(NCC(O)CNC1Cc2ccccc2C1)c1ccc(C(=O)N2CCOCC2)cc1F (centres unmarked) [Compound 27, N-(3-((2,3-Dihydro-1H-inden-2-yl)amino)-2-hydroxypropyl)-2-fluoro-4-(morpholine-4-carbonyl)benzamide]
7 | 69.4 µM |  |  | O=C(NCC(O)CNC1Cc2ccc(Br)cc2C1)c1ccc(Cl)cc1 (centres unmarked) [Compound 28, N-(3-((5-Bromo-2,3-dihydro-1H-inden-2-yl)amino)-2-hydroxypropyl)-4-chlorobenzamide]
8 | 4.43 µM |  |  | O=C(NCCC(O)CNC1Cc2ccccc2C1)c1ccc(Cl)cc1 (centres unmarked) [Compound 29, 4-Chloro-N-(4-((2,3-dihydro-1H-inden-2-yl)amino)-3-hydroxybutyl)benzamide]
9 | 22.6 µM |  |  | O=C(NCC(O)CNC1CCc2ccc(F)cc2C1)c1ccc(Cl)cc1 (centres unmarked) [Compound 31, 4-Chloro-N-(3-((7-fluoro-1,2,3,4-tetrahydronaphthalen-2-yl)amino)-2-hydroxypropyl)benzamide]
10 | 18.8 µM |  |  | O=C(NCC(O)CNC1CCc2cc(F)ccc2C1)c1ccc(Cl)cc1 (centres unmarked) [Compound 32, 4-Chloro-N-(3-((6-fluoro-1,2,3,4-tetrahydronaphthalen-2-yl)amino)-2-hydroxypropyl)benzamide]
11 | 24.9 µM |  |  | CN(CC(O)CNC(=O)c1ccc(Cl)cc1)C1CCc2ccccc2C1 (centres unmarked) [Compound 33, 4-Chloro-N-(2-hydroxy-3-(methyl(1,2,3,4-tetrahydronaphthalen-2-yl)amino)propyl) benzamide]
12 | 0.12 µM |  |  | O=C(NCC(O)CNC1Cc2ccccc2C1)c1ccc(C(=O)N2CC3CCC(C2)O3)cc1 (centres unmarked) [Compound 39, 4-(8-Oxa-3-azabicyclo[3.2.1]octane-3-carbonyl)-N-(3-((2,3-dihydro-1H-inden-2-yl)amino)-2-hydroxypropyl)benzamide]
13 | 0.157 µM |  |  | CC1(C)CN(C(=O)c2ccc(C(=O)NCC(O)CNC3Cc4ccccc4C3)cc2)CCO1 (centres unmarked) [Compound 41, N-(3-((2,3-Dihydro-1H-inden-2-yl)amino)-2-hydroxypropyl)-4-(2,2-dimethylmorpholine-4-carbonyl)benzamide]
14 |  | 0.164 µM | 0.662 µM | CC(=O)N1CCC(Nc2cncc(C(=O)NCC(O)CNC3Cc4ccccc4C3)c2)CC1 (centres unmarked) [Compound 53, 5-((1-Acetylpiperidin-4-yl)amino)-N-(3-((2,3-dihydro-1H-inden-2-yl)amino)-2-hydroxypropyl)nicotinamide]
15 |  | 0.45 µM | 0.122 µM | CC(=O)N1CCC(Nc2cc(C(=O)NC[C@H](O)CNC3Cc4ccccc4C3)ccn2)CC1 [Compound 55, (R)-2-((1-Acetylpiperidin-4-yl)amino)-N-(3-((2,3-dihydro-1H-inden-2-yl)amino)-2-hydroxypropyl)isonicotinamide]
16 |  | 0.098 µM | 0.007 µM | CC(=O)N1CCC(Nc2cc(C(=O)NC[C@@H](O)CNC3Cc4ccccc4C3)ccn2)CC1 [Compound 56, (S)-2-((1-Acetylpiperidin-4-yl)amino)-N-(3-((2,3-dihydro-1H-inden-2-yl)amino)-2-hydroxypropyl)isonicotinamide]
17 |  | 0.157 µM | 0.015 µM | CC[C@H]1COCCN1C(=O)c1ccc(C(=O)NC[C@@H](O)CNC2Cc3ccccc3C2)cc1 [Compound 70, N-((S)-3-((2,3-dihydro-1H-inden-2-yl)amino)-2-hydroxypropyl)-4-((S)-3-ethylmorpholine-4-carbonyl)benzamide]
18 |  | 0.064 µM | 0.004 µM | CCOc1cc(C(=O)N2CCOCC2)ccc1C(=O)NC[C@@H](O)CNC1Cc2ccccc2C1 [Compound 75, (S)-N-(3-((2,3-dihydro-1H-inden-2-yl)amino)-2-hydroxypropyl)-2-ethoxy-4-(morpholine-4-carbonyl)benzamide]
19 |  | 0.209 µM | 0.008 µM | CCOc1cc(C(=O)N2CCCC2)ccc1C(=O)NC[C@@H](O)CNC1Cc2ccccc2C1 [Compound 76, (S)-N-(3-((2,3-dihydro-1H-inden-2-yl)amino)-2-hydroxypropyl)-2-ethoxy-4-(pyrrolidine-1-carbonyl)benzamide]
20 |  | 0.196 µM | 0.01 µM | O=C(NC[C@@H](O)CNC1Cc2ccccc2C1)c1ccc(C(=O)N2CC3CCC(C2)O3)cc1 [Compound 105, 4-(8-oxa-3-azabicyclo[3.2.1]octane-3-carbonyl)-N-((S)-3-((2,3-dihydro-1H-inden-2-yl)amino)-2-hydroxypropyl)benzamide]
21 |  | 10.4 µM | > 2 µM | CN(C[C@@H](O)CNC1Cc2ccccc2C1)C(=O)c1ccc(C(=O)N2CCOCC2)cc1 [Compound 111, (S)—N-(3-((2,3-Dihydro-1H-inden-2-yl)amino)-2-hydroxypropyl)-N-methyl-4-(morpholine-4-carbonyl)benzamide]
22 |  | 0.066 µM | 0.024 µM | CCOc1cc(C(=O)N2CCS(=O)(=O)CC2)ccc1C(=O)NC[C@@H](O)CNC1Cc2ccccc2C1 [Compound 114, (S)-N-(3-((2,3-dihydro-1H-inden-2-yl)amino)-2-hydroxypropyl)-4-(1,1-dioxidothiomorpholine-4-carbonyl)-2-ethoxybenzamide]

Row | Structure (SMILES) | IC50 [1] | IC50 [2] | IC50 [3]
23 | O=C(NCC(O)CNC1Cc2ccccc21)c1ccc(Cl)cc1 (centres unmarked) [Compound 34, N-(3-(Bicyclo[4.2.0]octa-1(6),2,4-trien-7-ylamino)-2-hydroxypropyl)-4-chlorobenzamide] | 41.1 µM |  | 
24 | CCOc1cc(C(=O)N2C3CCC2COC3)ccc1C(=O)NC[C@@H](O)CNC1Cc2ccccc2C1 [Compound 77, 4-(3-oxa-8-azabicyclo[3.2.1]octane-8-carbonyl)-N-((S)-3-((2,3-dihydro-1H-inden-2-yl)amino)-2-hydroxypropyl)-2-ethoxybenzamide] |  | 0.029 µM | 0.0005 µM
25 | O=C(NC[C@@H](O)CNC1Cc2ccccc2C1)c1ccc(C(=O)N2C3CCC2COC3)cc1 [Compound 103, 4-(3-oxa-8-azabicyclo[3.2.1]octane-8-carbonyl)-N-((S)-3-((2,3-dihydro-1H-inden-2-yl)amino)-2-hydroxypropyl)benzamide] |  | 0.12 µM | 0.017 µM
26 | O=C(NC[C@@H](O)CNC1Cc2ccccc2C1)c1ccc(C(=O)N2C3CCC2COC3)cc1Cl [Compound 121, 4-(3-oxa-8-azabicyclo[3.2.1]octane-8-carbonyl)-2-chloro-N-((S)-3-((2,3-dihydro-1H-inden-2-yl)amino)-2-hydroxypropyl)benzamide] |  | 0.13 µM | 0.016 µM
